According to patent US20080167363A1, “Modulation of Neurogenesis By Melatoninergic Agents” (BrainCells, Inc, priority 2006, published 2008):
pEC50, pIC50: −log10 of the molar value. “And” between values parts separate entries of the source, which are not always exact repeats. Equal values may be shown once. Blank lines part the entries; values can stand above or below the compound they belong to.

Experiments:
mGluR2 = mGluR2 (Homo sapiens, UniProt Q14416); conditions: antagonist; cited from earlier work
mGluR3 = mGluR3 (Homo sapiens, UniProt Q14832); conditions: antagonist; cited from earlier work
[1] = tested on: Group I or Group III receptors; conditions: at sub-mM concentrations; cited from earlier work
[2] = tested on: Human neural stem cells (hNSCs); experiment: Neuronal differentiation of human neural stem cells (TUJ-1 staining); assay type: cell-based; conditions: for maximum neuronal differentiation percent of positive control: basal media values subtracted
Description: Human neural stem cells (hNSCs) were isolated and grown in monolayer culture, plated, treated with varying concentrations of the melatonin agonist ramelteon and stained with TUJ-1 antibody, as described in U.S. Provisional Application No. 60/697,905 (incorporated by reference). Mitogen-free test media with a positive control for neuronal differentiation was used along with basal media without growth factors as a negative control. […] Provisional Application No. 60/697,905 (incorporated by reference). Mitogen-free test media with a positive control for neuronal differentiation was used along with basal media without growth factors as a negative control. Human neural stem cells (hNSCs) were isolated and grown in monolayer culture, plated, treated with varying concentrations of captopril and/or melatonin (test compounds), and stained with TUJ-1 antibody, as described in U.S. Provisional Application No. 60/697,905 (incorporated by reference). Mitogen-free test media with a positive control for neuronal differentiation was used along with basal media without growth factors as a negative control. Human neural stem cells (hNSCs) were isolated and grown in monolayer culture, plated, treated with varying concentrations of serotonin (5-HT) and/or melatonin (test compounds), and stained with TUJ-1 antibody, as described in U.S. Provisional Application No. 60/697,905 (incorporated by reference). Mitogen-free test media with a positive control for neuronal differentiation was used along with basal media without growth factors as a negative control. Human neural stem cells (hNSCs) were isolated and grown in monolayer culture, plated, treated with varying concentrations of buspirone in the presence or absence of the melatonin agonist melatonin, and stained with TUJ-1 antibody, as described in U.S. Provisional Application No. 60/697,905 (incorporated by reference). Mitogen-free test media with a positive control for neuronal differentiation was used along with basal media without growth factors as a negative control. Human neural stem cells (hNSCs) were isolated and grown in monolayer culture, plated, treated with varying concentrations of buspirone in the presence or absence of the melatonin agonist ramelteon, and stained with TUJ-1 antibody, as described in U.S. Provisional Application No. 60/697,905 (incorporated by reference). Mitogen-free test media with a positive control for neuronal differentiation was used along with basal media without growth factors as a negative control. Human neural stem cells (hNSCs) were isolated and grown in monolayer culture, plated, treated with varying concentrations of the melatonin […] and stained with TUJ-1 antibody, as described in U.S. Provisional Application No. 60/697,905 (incorporated by reference). Mitogen-free test media with a positive control for neuronal differentiation was used along with basal media without growth factors as a negative control. Human neural stem cells (hNSCs) were isolated and grown in monolayer culture, plated, treated with varying concentrations of the melatonin […] and stained with TUJ-1 antibody, as described in U.S. Provisional Application No. 60/697,905 (incorporated by reference). Mitogen-free test media with a positive control for neuronal differentiation was used along with basal media without growth factors as a negative control. Human neural stem cells (hNSCs) were isolated and grown in monolayer culture, plated, treated with varying concentrations of the melatonin agonist agomelatine and stained with TUJ-1 antibody, as described in U.S. Provisional Application No. 60/697,905 (incorporated by reference). Mitogen-free test media with a positive control for neuronal differentiation was used along with basal media without growth factors as a negative control. The presence of synergy was determined by use of a combination index (CI). […]

[3] = tested on: KA, AMPA, and NMDA iGlu receptors; conditions: cited from earlier work
human mGlu2 receptors = human mGlu2 receptors (Homo sapiens, UniProt Q14416); conditions: agonist, in vitro; cited from earlier work
human mGlu3 receptors = human mGlu3 receptors (Homo sapiens, UniProt Q14832); conditions: agonist, in vitro; cited from earlier work
[4] = tested on: Human neural stem cells (hNSCs); experiment: Astrocyte differentiation of human neural stem cells (GFAP staining); assay type: cell-based; conditions: agent alone; for pEC50: Homo sapiens, Neural stem cell, percent of astrocyte positive control, basal media subtracted
Description: Human neural stem cells (hNSCs) were isolated and grown in monolayer culture, plated, treated with varying concentrations of buspirone in the presence or absence of the melatonin agonist melatonin, and stained with an antibody for the detection of the astrocyte marker GFAP, as described in U.S. Provisional Application No. 60/697,905 (incorporated by reference). Mitogen-free test media with a positive control for astrocyte differentiation was used along with basal media without growth factors as a negative control. Human neural stem cells (hNSCs) were isolated and grown in monolayer culture, plated, treated with varying concentrations of buspirone in the presence or absence of the melatonin agonist ramelteon, and stained with an antibody for the detection of the astrocyte marker GFAP, as described in U.S. Provisional Application No. 60/697,905 (incorporated by reference). Mitogen-free test media with a positive control for astrocyte differentiation was used along with basal media without growth factors as a negative control.

Male F344 rats [5] = experiment: Novelty suppressed feeding assay (latency to eat); assay type: in vivo, rat; conditions: 0.5 mg/kg buspirone and/or 3.0 mg/kg melatonin, i.p., 1x per day for 21 days
Method: Male F344 rats were dosed 1× per day for 21-days with 0 (vehicle only) 0.5 mg/kg buspirone (n=12 per dose group, i.p.) 3.0 mg/kg melatonin (n=12 per dose group, i.p.) or the combination of the two drugs at the same doses. […] Results shown in this figure indicate the mean latency to approach and eat a food pellet within the novel environment. Data are presented as latency to eat expressed as percent baseline.
Male F344 rats were dosed 1× per day for 21-days with 0 (vehicle only), 0.5 mg/kg buspirone (n=12 per dose group, i.p.), 3.0 mg/kg melatonin (n=12 per dose group, i.p.), or the combination of the two drugs at the same doses. Twenty-four hours prior to behavioral testing, all food is removed from the home cage. At the time of testing a single pellet is placed in the center of a novel arena. Animals are placed in the corner of the arena and the latency (in time) to eat the pellet is recorded. […] Animals receive compound daily for 21 days and testing is performed on day 21. A decreased latency to eat the food pellet is indicative of both neurogenesis and antidepressant activity.

Male F344 rats [6] = experiment: In vivo neurogenesis (BrdU positive cells in dentate gyrus); set-up: species or system rat; conditions: 0.5 mg/kg buspirone and/or 3.0 mg/kg melatonin, i.p., 1x per day for 28 days; compared to vehicle
Method: (§1) Male F344 rats were dosed 1× per day for 28-days with 0 (vehicle only), 0.5 mg/kg buspirone (n=12 per dose group, i.p.), 3.0 mg/kg melatonin (n=12 per dose group, ip) or the combination of the two drugs at the same doses. BrdU was administered once daily between days 9 and 14 (100 mg/kg/day, i.p., n=12 per dose group). […] Data are presented as percent change in BrdU positive cells per cubic mm dentate gyrus.
as §1, with “For the in vivo neurogenesis assays, male” for “Male”

[7] = Homo sapiens, Neural stem cell, agent alone, concentration response curve, percent of neuronal positive control, basal media subtracted, read-out: EC50, neuronal differentiation

human mGlu2 receptors, sequence (Q14416 19-872): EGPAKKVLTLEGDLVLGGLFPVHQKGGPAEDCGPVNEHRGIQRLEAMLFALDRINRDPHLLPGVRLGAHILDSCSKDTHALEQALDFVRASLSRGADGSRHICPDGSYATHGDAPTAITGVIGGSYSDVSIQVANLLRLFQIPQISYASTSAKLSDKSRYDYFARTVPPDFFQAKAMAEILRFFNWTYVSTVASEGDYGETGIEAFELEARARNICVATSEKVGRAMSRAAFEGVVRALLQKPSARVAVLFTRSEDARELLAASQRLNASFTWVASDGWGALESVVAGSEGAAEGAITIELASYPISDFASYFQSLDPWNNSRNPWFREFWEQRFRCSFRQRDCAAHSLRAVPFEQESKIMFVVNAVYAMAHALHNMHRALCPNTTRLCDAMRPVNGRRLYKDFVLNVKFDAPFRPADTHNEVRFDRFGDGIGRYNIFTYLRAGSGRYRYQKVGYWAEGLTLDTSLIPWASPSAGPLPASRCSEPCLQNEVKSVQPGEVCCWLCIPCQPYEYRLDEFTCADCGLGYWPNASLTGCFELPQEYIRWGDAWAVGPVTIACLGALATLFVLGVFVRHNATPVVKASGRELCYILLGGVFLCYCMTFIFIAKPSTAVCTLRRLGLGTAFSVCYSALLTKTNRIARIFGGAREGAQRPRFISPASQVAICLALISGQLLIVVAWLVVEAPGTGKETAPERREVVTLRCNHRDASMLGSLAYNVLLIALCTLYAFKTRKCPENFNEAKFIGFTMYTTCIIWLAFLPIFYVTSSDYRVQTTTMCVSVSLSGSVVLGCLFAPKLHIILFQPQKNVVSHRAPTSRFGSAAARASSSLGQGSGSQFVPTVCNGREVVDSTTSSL
mGluR2, sequence (Q14416 19-872): as above
mGluR3, sequence (Q14832 23-879): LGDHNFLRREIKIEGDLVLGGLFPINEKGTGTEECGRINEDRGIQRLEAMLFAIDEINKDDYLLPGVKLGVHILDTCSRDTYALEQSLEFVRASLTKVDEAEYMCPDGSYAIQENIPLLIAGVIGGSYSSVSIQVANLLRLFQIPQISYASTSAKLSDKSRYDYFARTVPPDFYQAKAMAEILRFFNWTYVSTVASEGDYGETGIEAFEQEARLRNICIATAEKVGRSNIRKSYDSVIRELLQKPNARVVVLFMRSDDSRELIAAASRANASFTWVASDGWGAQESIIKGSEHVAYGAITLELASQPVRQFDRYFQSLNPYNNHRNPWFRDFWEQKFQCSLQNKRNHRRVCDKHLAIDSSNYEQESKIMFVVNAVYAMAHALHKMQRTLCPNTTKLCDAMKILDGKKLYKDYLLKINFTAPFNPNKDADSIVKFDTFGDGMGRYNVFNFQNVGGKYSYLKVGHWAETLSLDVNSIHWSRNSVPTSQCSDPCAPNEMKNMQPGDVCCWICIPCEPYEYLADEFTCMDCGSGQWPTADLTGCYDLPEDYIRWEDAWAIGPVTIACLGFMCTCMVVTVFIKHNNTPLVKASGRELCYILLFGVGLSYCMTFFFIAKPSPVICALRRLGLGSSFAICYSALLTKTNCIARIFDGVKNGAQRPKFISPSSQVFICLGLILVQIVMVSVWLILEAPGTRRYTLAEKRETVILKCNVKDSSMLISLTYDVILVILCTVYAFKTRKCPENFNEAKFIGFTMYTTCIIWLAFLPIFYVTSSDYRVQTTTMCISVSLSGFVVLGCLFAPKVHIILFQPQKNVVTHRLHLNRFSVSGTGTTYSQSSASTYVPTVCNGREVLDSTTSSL
human mGlu3 receptors, sequence (Q14832 23-879): as above

Structure (SMILES): NC1(C(=O)O)CCc2cc(P(=O)(O)O)ccc21 (racemic) [APICA, (RS)-1-amino-5-phosphonoindan-1-carboxylic acid]
pIC50 (mGluR2): ~4.52 | pIC50 (mGluR3): ~4.52 | activity against Group I or Group III receptors [1]: no appreciable activity

Structure (SMILES): COc1ccc2cccc(CCNC(C)=O)c2c1 [Agomelatine]
pEC50 [2, 7]: 5.06 | maximum neuronal differentiation percent of positive control ([2]; agent alone): 42%

Structure (SMILES): N[C@](CC1c2ccccc2Oc2ccccc21)(C(=O)O)[C@H]1C[C@@H]1C(=O)O [LY341495, (2S)-2-amino-2-(1S,2S-2-carboxycycloprop-1-yl)-3-(xanth-9-yl) propanoic acid]
activity against KA, AMPA, and NMDA iGlu receptors [3]: substantially inactive

Structure (SMILES): N[C@@]1(C(=O)O)CO[C@H]2[C@H](C(=O)O)[C@H]21 [LY379268, (−)-2-Oxa-4-aminobicyclohexane-4,6-dicarboxylic acid]
pEC50 (human mGlu2 receptors): > 8.00 | pEC50 (human mGlu3 receptors): > 8.00

Structure (SMILES): NCCc1c[nH]c2ccc(O)cc12 [serotonin, 5-hydroxytryptamine]
pEC50 [2, 7]: 5.13

Now from value to compound, other results behind:

pEC50 ([2]; agent alone, extrapolated beyond highest tested concentration 31.6 μM, read-out: EC50, neuronal differentiation, estimated by extrapolation): 4.47
Structure (SMILES): CCC(=O)NC1Cc2ccccc2C(c2ccccc2)C1 (centres unmarked) [4-P-PDOT]
maximum neuronal differentiation percent of positive control ([2]; agent alone): 51%

pEC50 ([2]; Homo sapiens, Neural stem cell, read-out: EC50, neuronal differentiation): 6.62
Structure (SMILES): COC(=O)Nc1ccc2[nH]cc(CCNC(C)=O)c2c1 [GR 135,531, 5-Methoxy-carbonylamino-N-acetyl-tryptamine]
maximum neuronal differentiation percent of positive control ([2]; agent alone): 59%

pEC50 [2, 7]: 5.01
Structure (SMILES): CC(=O)NCCc1c(Cc2ccccc2)[nH]c2ccccc12 [Luzindole]
maximum neuronal differentiation percent of positive control ([2]; agent alone): 86%

pEC50 [2, 7]: 5.09
Structure (SMILES): CCC(=O)NCC[C@@H]1CCc2ccc3c(c21)CCO3 [Ramelteon]
maximum neuronal differentiation percent of positive control ([2]; agent alone): 45% | effect on astrogenesis [4]: no astrogenesis

pEC50 [2, 7]: 5.33 | pEC50 [4]: 5.24
Structure (SMILES): O=C1CC2(CCCC2)CC(=O)N1CCCCN1CCN(c2ncccn2)CC1 [buspirone]
maximum neuronal differentiation percent of positive control ([2]; agent alone): 62% | maximum astrocyte differentiation relative to positive control [4]: 60% and 59% | latency to eat the food pellet (percent baseline) (Male F344 rats [5]): did not significantly reduce | BrdU positive cells per cubic mm dentate gyrus (percent change) (Male F344 rats [6]): did not significantly change

pEC50 [2, 7]: 5.42
Structure (SMILES): C[C@H](CS)C(=O)N1CCC[C@H]1C(=O)O [captopril]

pEC50 [2, 7]: < 4.50 | pEC50 ([2]; Homo sapiens, Neural stem cell, agent alone, extrapolated beyond highest tested concentration 31.6 μM, read-out: EC50, neuronal differentiation, estimated by extrapolation): ~4.30 | pEC50 [4]: < 4.50
Structure (SMILES): COc1ccc2[nH]cc(CCNC(C)=O)c2c1 [melatonin]
effect on astrogenesis [4]: no astrogenesis | effect on astrogenesis ([4]; listed as Melatonin): no effect | latency to eat the food pellet (percent baseline) (Male F344 rats [5]): did not significantly reduce | BrdU positive cells per cubic mm dentate gyrus (percent change) (Male F344 rats [6]): did not significantly change
